Values of other authors as cited in patent US20220166043A1, “NEGATIVE ELECTRODE ELECTROLYTE SOLUTION FOR REDOX FLOW BATTERIES, AND REDOX FLOW BATTERY” (ARM Technologies Co., Ltd., priority 2019, published 2022).
Where “and” joins values, the source holds several entries; their conditions need not be identical. Equal entries are not always repeated. Where two headings read alike, the source gives them in different places.

Conditions: octanol-water partition coefficient of the negative electrode solvent

| Negative electrode solvent LogP (Log POW) | Molecule | Negative electrode solvent LogP (Log POW) (listed as PP13 TFSI) |
| --- | --- | --- |
| 3.42 | c1ccc(COCCOCc2ccccc2)cc1 [EGDBE, ethylene glycol dibenzyl ether] |  |
| 1.402 and 1.40 | Cc1cnc(C)c(C)n1 [2,3,5-trimethylpyrazine] |  |
| 1.575 and 1.58 | COC1CCCC1 [MCP, methoxycyclopentane] |  |

| Molecule | Negative electrode solvent LogP (Log POW) | Negative electrode solvent LogP (Log POW) (listed as PP13 TFSI) |
| --- | --- | --- |
| 1-methyl-1-propylpyrrolidinium bis(trifluoromethanesulfonyl)imide | 4.82 | 4.8165 |
